{
  "source": "patent US20090221538A1",
  "about": "“METHODS OF TREATING MULTIPLE SCLEROSIS BY ADMINISTERING PULSE DOSE CALCITRIOL” (priority 2008, published 2009)",
  "key": {"splenocytes": {"system": "splenocytes", "test": "Splenocyte staining and FACS analysis after pulse dose", "assay_type": "in vivo, mouse", "protocol": "For flow cytometric analysis, splenocytes were dissociated into ice-cold Hank's balanced salt solution with HEPES buffer, and RBC were depleted. Duplicate samples (10^6 cells/sample) were stained (30-45 min on ice) with optimal amounts of the mAb conjugates in staining buffer (PBS pH 7.3 with 5% heat-inactivated FBS and 0.1% NaN3). Reference samples stained with single-color mAb served as controls to select fluorescence gates and flow cytometer compensation. The fluorescent mAb conjugates used for this analysis were FITC-labeled mAb to CD4 (clone L3T4) and APC-labeled mAb to CD11b (clone Macla) from Southern Biotechnology, and PE-labeled mAb to CD8 (clone alpha) and biotin-labeled mAb to CD45R (B220) from Invitrogen. PerCP-Cy5.5 was from BD/Pharmingan. Stained samples were analyzed on a FACScalibur™ using CELLQuest™ software (BD Biosciences, Franklin Lakes, N.J.)."}, "EAE": {"system": "EAE", "conditions": "mouse, in vivo; cited from earlier work"}, "[1]": {"test": "Spinal cord 1,25-(OH)2D3 extraction and radioimmunoassay", "assay_type": "in vivo, mouse", "conditions": "200 ng 1,25-(OH)2D3 pulse dose plus vitamin D3 supplementation; end of the study", "protocol": "The vitamin D3 and 1,25-(OH)2D3 were obtained from Sigma Chemical Co. The vitamin D3 was dissolved in safflower oil and stored in the dark at 5° C. The 1,25-(OH)2D3 was dissolved in 100% ethanol (1 mg/mL) and stored in the dark under nitrogen gas at −20° C. The concentration of 1,25-(OH)2D3 was determined by spectral analysis. Animals with stage 2.3±0.3 were randomized into treatment groups. The details of the treatments are given in the figure legends and table footnotes. The synthetic diet used in some experiments was formulated to contain all essential nutrients except vitamin D3 and was prepared exactly as we described (Spach and Hayes, 2005, J. Immunol. 175:4119-4126). For experiments using supplementary vitamin D3, the placebo group was fed the synthetic diet ad libidum without added vitamin D3, whereas the vitamin D3-supplemented group was fed the synthetic diet ad libidum with vitamin D3 added in an amount to provide 1 μg/d, calculated based on a daily measured consumption of 4.0 g dry weight of diet per mouse. Fresh synthetic diet was provided three times per week. At several times during the study, mice were weighed and blood samples were obtained from the tail vein. At the conclusion of the study, the mice were euthanized, a blood sample was obtained, perfusion was done, and the spinal cords and optic nerves were removed. […]"}, "[2]": {"conditions": "splenocytes 14 days after a 175 ng pulse dose, no significant differences from normal control mice"}},
  "note": "“Also recorded” adds a separate entry of the source.",
  "data": [
    {"smiles": "C=C1/C(=C\\C=C2/CCC[C@]3(C)[C@@H]([C@H](C)CCCC(C)(C)O)CC[C@@H]23)C[C@@H](O)C[C@@H]1O", "note": "[1,25-(OH)2D3, 1,25-dihydroxy vitamin D3]", "values": [
      {"measurement": "numbers of splenocytes recovered", "setting": "splenocytes; 14 days after a 175 ng pulse dose, no significant differences from normal control mice", "result": "43±9", "unit": "million cells"},
      {"measurement": "depletion of splenic lymphocytes and monocytes / immunodeficient state", "setting": "splenocytes; B10.PL mice with EAE, 175 ng pulse dose, two weeks post treatment", "result": "did deplete; also recorded: did not result in an immunodeficient state"},
      {"measurement": "proportion of B220+ B lymphocytes", "setting": "splenocytes; [2]", "result": "63±3", "unit": "%"},
      {"measurement": "proportion of CD4+ T lymphocytes", "setting": "splenocytes; [2]", "result": "18±1", "unit": "%"},
      {"measurement": "proportion of CD8+ T lymphocytes", "setting": "splenocytes; [2]", "result": "11±1", "unit": "%"},
      {"measurement": "proportion of CD11b+ monocytes", "setting": "splenocytes; [2]", "result": "18±2", "unit": "%"},
      {"measurement": "EAE disease induction", "setting": "EAE", "result": "strongly inhibited"},
      {"measurement": "EAE progression", "setting": "EAE", "result": "prevented progression"},
      {"measurement": "established EAE disease", "setting": "EAE", "result": "reversed established disease"},
      {"measurement": "1,25-(OH)3D3 in the spinal cord", "setting": "[1]", "result": "18.8 ± 6.6", "unit": "pmol/mL"}
    ]}
  ]
}
